What is called IC50 is the concentration that gives 50% inhibition. A higher IC50 goes with a need for much substance.

This assay concerns PDE4. In words: PDE4 Assay Procedure ([3H]-cAMP SPA). The assay is classed as biochemical. Particulars: 15 nM [3H]-cAMP, 1 hour at room temperature, SPA beads. How it is done: Compounds to be tested were resuspended in DMSO at a stock concentration of 1 mM. […] These dilutions were done in 96-well plates. In some cases, plates containing diluted compounds were frozen before being assayed. In these cases, the plates were thawed at room temperature and stirred for 15 minutes.
Ten microliters of the diluted compounds were poured into a “low binding” assay plate. […] The reaction was initiated by adding ten microliters of a solution containing PDE4. The plate was then incubated under stirring for 1 hour at room temperature. After incubation the reaction was stopped with 50 microlitres of SPA beads, and the reaction was allowed to incubate for another 20 minutes at room temperature before measuring radioactivity using standard instrumentation.
The reaction mixture was prepared by adding 90 ml of H2O to 10 ml of 10× assay buffer (500 mM Tris pH 7.5, 83 mM MgCl2, 17 mM EGTA), and 40 microlitres 1 μCi/μL [3H]-cAMP. SPA beads solution was prepared by adding 500 mg to […] H2O for a final concentration of 20 mg/ml beads and 18 mM zinc sulphate.
Regarding `CC1(C)Cc2c(c(N3CCCC3)nc3sc4c(NCc5ccncc5)ncnc4c23)CO1` [Example 71, 2,2-Dimethyl-N-(pyridin-4-ylmethyl)-5-pyrrolidin-1-yl-1,4-dihydro-2H-pyrano[4″,3″:4′,5′]pyrido[3′,2′:4,5]thieno[3,2-d]pyrimidin-8-amine], inhibition was half-maximal at 0.032 µM (IC50). In the case of `CC1(C)Cc2c(c(N3CCOCC3)nc3sc4c(NCc5ccccn5)ncnc4c23)CO1` [Example 37, 2,2-dimethyl-5-morpholin-4-yl-N-(pyridin-2-ylmethyl)-1,4-dihydro-2H-pyrano[4″,3″:4′,5′]pyrido[3′,2′:4,5]thieno[3,2-d]pyrimidin-8-amine], the IC50 is 0.021 µM. As for `CCCc1nc2sc3c(NCCN4CCOCC4)ncnc3c2c2c1COC(C)(C)C2` [Example 38, 2,2-dimethyl-N-(2-morpholin-4-ylethyl)-5-propyl-1,4-dihydro-2H-pyrano[4″,3″:4′,5′]pyrido[3′,2′:4,5]thieno[3,2-d]pyrimidin-8-amine], the IC50 was 0.019 µM.

In the case of `CC1(C)Cc2c(c(N3CCOCC3)nc3sc4c(NCc5cccnc5)ncnc4c23)CO1` [Example 36, 2,2-dimethyl-5-morpholin-4-yl-N-(pyridin-3-ylmethyl)-1,4-dihydro-2H-pyrano[4″,3″:4′,5′]pyrido[3′,2′:4,5]thieno[3,2-d]pyrimidin-8-amine], the IC50 was 0.0046 µM. Compound `CCCc1nc2sc3c(NCc4cccnc4)ncnc3c2c2c1COC(C)(C)C2` [Example 72, 2,2-Dimethyl-5-propyl-N-(pyridin-3-ylmethyl)-1,4-dihydro-2H-pyrano[4″,3″:4′,5′]pyrido[3′,2′:4,5]thieno[3,2-d]pyrimidin-8-amine] came in with an IC50 of 0.024 µM.

For the compound `CCC1(C)Cc2c(c(N3CCOCC3)nc3sc4c(NCc5cccnc5)ncnc4c23)CO1` (stereo not drawn) [Example 80, 2-Ethyl-2-methyl-5-morpholin-4-yl-N-(pyridin-3-ylmethyl)-1,4-dihydro-2H-pyrano[4″,3″:4′,5′]pyrido[3′,2′:4,5]thieno[3,2-d]pyrimidin-8-amine], the IC50 amounted to 0.013 µM. Turning to `CC(C)Cc1nc2sc3c(NCc4cccnc4)ncnc3c2c2c1COC(C)(C)C2` [Example 74, 5-Isobutyl-2,2-dimethyl-N-(pyridin-3-ylmethyl)-1,4-dihydro-2H-pyrano[4″,3″:4′,5′]pyrido[3′,2′:4,5]thieno[3,2-d]pyrimidin-8-amine], the IC50 came out at 0.022 µM. The value for `CC(C)c1nc2sc3c(NCc4ccccn4)ncnc3c2c2c1COC(C)(C)C2` [Example 46, 2,2-Dimethyl-5-isopropyl-N-(pyridin-2-ylmethyl)-1,4-dihydro-2H-pyrano[4″,3″:4′,5′]pyrido[3′,2′:4,5]thieno[3,2-d]pyrimidin-8-amine] was 0.014 µM; that for `CC1(C)Cc2c(c(N3CCOCC3)nc3sc4c(NCc5ccncc5)ncnc4c23)CO1` [Example 55, 2,2-Dimethyl-5-morpholin-4-yl-N-(pyridin-4-ylmethyl)-1,4-dihydro-2H-pyrano[4″,3″:4′,5′]pyrido[3′,2′:4,5]thieno[3,2-d]pyrimidin-8-amine] was 0.019 µM.

As for `CC1(C)Cc2c(c(N3CCCC3)nc3sc4c(NCCN5CCOCC5)ncnc4c23)CO1` [Example 27, 2,2-Dimethyl-5-pyrrolidin-1-yl-N-(2-morpholin-4-ylethyl)-1,4-dihydro-2H-pyrano[4″,3″:4′,5′]pyrido[3′,2′:4,5]thieno[3,2-d]pyrimidin-8-amine], the IC50 came to 0.023 µM. In the case of `CC1(C)Cc2c(c(N3CCOCC3)nc3sc4c(NCCN5CCOCC5)ncnc4c23)CO1` [Example 20, 2,2-Dimethyl-5-morpholin-4-yl-N-(2-morpholin-4-ylethyl)-1,4-dihydro-2H-pyrano[4″,3″:4′,5′]pyrido[3′,2′:4,5]thieno[3,2-d]pyrimidin-8-amine], the IC50 is 0.026 µM. In the case of `COCCN(C)c1nc2sc3c(NCc4cccnc4)ncnc3c2c2c1COC(C)(C)C2` [Example 59, N-(2-Methoxyethyl)-N,2,2-trimethyl-N-(pyridin-3-ylmethyl)-1,4-dihydro-2H-pyrano[4″,3″:4′,5′]pyrido[3′,2′:4,5]thieno[3,2-d]pyrimidine-5,8-diamine.], it took 0.061 µM to reach half-maximal inhibition (IC50).

(Values after patent US20080207645A1, “Pyridothienopyrimidine Derivatives” (priority 2004, published 2008).)
